Measured values as given in patent publication US20050063969A1, “Assay” (priority 2001, published 2005).

Legend:
Type in all cases: cell-based
[1] = system: K562-αvβ3 cells; assay: Adhesion of K562-αvβ3 cells to wells coated with GST-LAPβ3 (amino acids 259-269); conditions: wells coated with 0.5 μg GST-LAPβ3; 2 mM MgCl2; antibodies 1 μg/well; FIG. 2
Experimental: (§1) K562-αvβ3 cells were allowed to attach to wells coated with 0.5 μg of GST-LAPβ3 (amino acids 259-269) in the presence of 2 mM MgCl2. Specific blocking antibodies (1 μg/well) and compounds were added as indicated. Each data point represents the mean±SD of duplicate points, and is representative of at least three identical experiments.
(§2) K562-WT (wild-type), K562-αvβ6, K562-αvβ5 and K562-αvβ3 cells were maintained in 1:1 RPMI 1640, Hepes modification (Gibco): Dulbecco's […] (DMEM), Hepes modification (Sigma) supplemented with L-glutamine (Gibco) and 10% fetal calf serum (FCS). In addition K562-αvβ3, K562-αvβ5, and K562-αvβ6 cells were supplemented with geneticin (G418, Gibco) at 1 mg/ml. All transfected cells were generated by transfecting K562 cells with pCDNA-3 constructs containing individual integrin cDNAs, using lipofectamine plus (Gibco BRL).
(§3) All proteins were coated onto Maxisorp 96-well plates (Nunclon) overnight at 4° C. […] For quantitation cells were visualised by staining with 0.1% crystal violet (Sigma) for 10 minutes then lysed in 0.5% Triton X-100 (Sigma) and read optically at 570 nm in a Wallac Victor plate reader.
(§4) The region of LAPβ3 corresponding to amino acids 259 to 269 (^259HGRGDLGRLKK^269) was expressed as a GST fusion protein and tested for the ability to support adhesion of K562-αvβ3, K562-αvβ5, and K562-αvβ6 cells. […]

[2] = system: K562-αvβ5 cells; assay: Adhesion of K562-αvβ5 cells to wells coated with GST-LAPβ3 (amino acids 259-269); conditions: wells coated with 0.5 μg GST-LAPβ3; 0.5 mM MnCl2; antibodies 1 μg/well; FIG. 4
Experimental: as §1, with “K562-αvβ5 cells” for “K562-αvβ3 cells”, “of […]” for “of GST-LAPβ3”, “of 0.5” for “of 2”, “mM MnCl2.” for “mM MgCl2.”
as §2, §3, §4

[3] = system: K562-αvβ6 cells; assay: Adhesion of K562-αvβ6 cells to wells coated with GST-LAPβ3 (amino acids 259-269); conditions: wells coated with 0.5 μg GST-LAPβ3; 2 mM MgCl2; antibodies 1 μg/well; FIG. 3
Experimental: as §1, with “K562-αvβ6” for “K562-αvβ3”, “(amino-acids” for “(amino acids”
as §2, §3, §4

Compound | Blocking of K562-αvβ3 cell adhesion to GST-LAPβ3 (amino acids 259-269) [1] | Inhibition of K562-αvβ5 cell adhesion to GST-LAPβ3 (amino acids 259-269) [2] | Blocking of K562-αvβ6 cell adhesion to GST-LAPβ3 (amino acids 259-269) [3]
CN(Cc1nc2ccccc2[nH]1)C(=O)c1ccc2c(c1)CN(C)C(=O)[C@H](CC(=O)O)N2 [SB223245] | blocked | total blockade | 
Ac—RTDLDSLRT-NH2 (Ac-RTDLDSLRT-NH2) [GW603365A, described in WO 0037487] |  |  | blocked
